The record followed here is patent US11059795B2, “Androgen receptor modulators and methods for their use” (ESSA Pharma, Inc., priority 2018, dated 2021).

One may read the IC50 as the midpoint of a concentration-inhibition curve.

One data set concerns the target T1, androgen receptor (AR) (Homo sapiens, UniProt P10275, T878A).
T1 construct: LNCaP cells were transiently transfected with the PSA (6.1 kb)-luciferase reporter for 24 h; endogenous in cells; host or cells: LNCaP
T1 sequence (P10275 1-920 T878A): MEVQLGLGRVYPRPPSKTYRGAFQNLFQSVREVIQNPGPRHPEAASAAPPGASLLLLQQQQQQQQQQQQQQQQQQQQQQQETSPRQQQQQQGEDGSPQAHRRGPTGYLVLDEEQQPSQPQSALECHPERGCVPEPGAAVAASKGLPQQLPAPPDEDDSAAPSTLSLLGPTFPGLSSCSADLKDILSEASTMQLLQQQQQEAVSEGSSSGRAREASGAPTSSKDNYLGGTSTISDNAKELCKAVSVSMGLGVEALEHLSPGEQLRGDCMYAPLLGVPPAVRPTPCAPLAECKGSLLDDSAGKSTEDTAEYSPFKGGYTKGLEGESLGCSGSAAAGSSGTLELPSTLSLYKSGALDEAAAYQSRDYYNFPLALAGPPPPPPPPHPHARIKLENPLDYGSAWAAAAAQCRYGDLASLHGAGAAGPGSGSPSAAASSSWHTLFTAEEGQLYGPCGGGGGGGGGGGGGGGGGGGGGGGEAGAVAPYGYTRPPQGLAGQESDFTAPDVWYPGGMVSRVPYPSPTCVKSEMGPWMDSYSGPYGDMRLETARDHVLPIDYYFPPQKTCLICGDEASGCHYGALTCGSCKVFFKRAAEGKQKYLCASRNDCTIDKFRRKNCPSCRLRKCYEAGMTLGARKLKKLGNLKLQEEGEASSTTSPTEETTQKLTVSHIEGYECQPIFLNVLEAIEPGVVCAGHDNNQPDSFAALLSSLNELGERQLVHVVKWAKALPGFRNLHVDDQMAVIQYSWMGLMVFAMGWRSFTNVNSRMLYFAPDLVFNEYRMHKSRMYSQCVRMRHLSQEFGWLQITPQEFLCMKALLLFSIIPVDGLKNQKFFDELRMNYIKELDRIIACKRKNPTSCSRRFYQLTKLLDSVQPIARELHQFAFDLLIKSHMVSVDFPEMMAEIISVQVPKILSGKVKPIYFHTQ
In words: Androgen-induced PSA (6.1 kb)-luciferase reporter assay in LNCaP cells. It is filed as cell-based. As to conditions: LNCaP cells transfected with PSA (6.1 kb)-luciferase reporter, R1881 1 nM, 24 h; read-out: PSA-Luc IC50 Range. As for the experimental part: The PSA (6.1 kb)-luciferase reporter contains functional AREs (androgen response elements) to which AR binds in response to androgen to induce luciferase activity.
Cells were lysed using Passive Lysis Buffer (Promega) and then collected into V-bottom 96-well tissue culture plates. Lysates were centrifuged at 4° C. for 5 minutes at 3000 rpm. To measure luminescence of LNCaP cell lysates the Firefly Luciferase Assay System (Promega) was employed, according to manufacturer's protocol. Relative luminescence units (RLU) in cell lysates were detected for 10 seconds using Promega GloMax-Multi Detection Luminometer (Promega). Values were normalized to protein content. GraphPad Prism graphing software was used to calculate IC50 values.
Comparisons between treatment and control groups were compared using Two-Way ANOVA with post-hoc Dunnett's and Tukey's tests. Differences were considered statistically significant at P values less than 0.05.

A short description of data set [1]: Microsomal stability assay, mouse liver microsomes. It is filed as in vitro ADME. As to conditions: mouse, liver microsomes, pH 7.4, mouse liver microsomes, 1 μM compound, 0.5 mg/mL protein, 37° C.; read-out: MLM +30/− NADPH: Clint (μL/min/mg protein). As for the experimental part:
(§1) Microsomal stability assay is a widely used in vitro model to characterize the metabolic conversion by phase I enzymes, such as cytochrome P450 (CYP) enzymes. Since metabolism is known to be highly variable in different species, microsomal stability assay is commonly run in multiple species. Metabolic stability of testing compound can be evaluated using human, rat, mouse, or other animal liver or intestine microsomes to predict intrinsic clearance.
(§2) The assay was carried out in 96-well microtiter plates at 37° C. Reaction mixtures (25 μL) contained a final concentration of 1 μM test compound, 0.5 mg/mL liver microsomes protein, and 1 mM NADPH and/or 1 mM UDPGA (with alamethicin) in 100 mM potassium phosphate, pH 7.4 buffer with 3 mM MgCl2. The incubation was done with N=1, but duplicate incubation at each time point can be prepared if necessary. At each of the time points (for example, 0, 15, 30, and 60 minutes), 150 μL of quench solution (100% acetonitrile with 0.1% formic acid) with internal standard was transferred to each well. Besides the zero minute controls, mixtures containing the same components except the NADPH can also be prepared as the negative control. Verapamil was included as a positive control to verify assay performance. Plates were sealed, vortexed, and centrifuged at 4° C. for 15 minutes at 4000 rpm. The supernatant is transferred to fresh plates for LC/MS/MS analysis.
(§3) Summarized conditions: [Compound]=[…], [LM]=0.5 mg/mL, [NADPH]=1 mM and/or [UDPGA]=1 mM, Buffer=100 mM Potassium Phosphate, pH 7.4 with 3 mM MgCl2, Time=0, 15, 30, and 60 min, and Temperature=37° C.
(§4) All samples were analyzed on LC/MS/MS using an AB Sciex API 4000 instrument, coupled to a Shimadzu LC-20AD LC Pump system. Analytical samples were separated using a Waters Atlantis T3 dC18 reverse phase HPLC column (20 mm×2.1 mm) at a flow rate of 0.5 mL/min. The mobile phase consisted of 0.1% formic acid in water (solvent A) and 0.1% formic acid in 100% acetonitrile (solvent B).
(§5) The extent of metabolism is calculated as the disappearance of the test compound, compared to the 0-min time incubation. Initial rates are calculated for the compound concentration and used to determine half-life (t½) values and subsequently, the intrinsic clearance (Clint). Clint=(0.693)(1/t½ (min))(g of liver/kg of body weight)(mL incubation/mg of microsomal protein)(45 mg of microsomal protein/g of liver weight)

Data set [2] can be described thus: Microsomal stability assay, human liver microsomes. It counts as in vitro ADME. As to conditions: pH 7.4, 1 μM compound, 0.5 mg/mL protein, 37° C., read-out: HLM +/− NADPH: Clint (μL/min/mg protein). As for the experimental part: as §1, §2, §3, §4, §5
A general note: Liver microsomes are vesicles of endoplasmic reticulum, rich in cytochrome P450 enzymes.

Data set [3] in a line: Hepatocyte stability assay, mouse hepatocytes. It is filed as in vitro ADME. As to conditions: mouse, cryopreserved hepatocytes, 1 μM compound, 0.5 million cells/mL, 37° C., read-out: MH +/− NADPH: Clint (μL/min/million cells).
Excerpt: The […] of in vitro intrinsic clearance (Clint) for drug candidates in the early discovery stage is common practice in the pharmaceutical industry. The Clint values of drug candidates can help to confirm whether metabolism is the main clearance pathway when it is compared with the total body clearance in vivo. Hepatocytes are among the routinely used in vitro systems for measuring clearance. Hepatocytes have been reported to retain most of the phase I and phase II metabolic activities, and therefore, it is a useful tool to estimate the intrinsic clearance for potential drug candidates.
Metabolic stability of testing compound were be evaluated using human and mouse hepatocytes and can also be use rat, mouse, or other animal hepatocytes to predict intrinsic clearance. Cryopreserved hepatocytes were removed from the liquid nitrogen tank and thawed in a 37° C. water bath. As soon as the cells pulled away from the vial wall, they were decanted into 48 ml of warm HT medium. Cells were centrifuged for four minutes at 420 rpm (50 g). After removing the supernatant, pellet was re-suspended in warm DMEM medium. Cell density was counted by a hemacytometer.
The assay was carried out in 96-well microtiter plates. Compounds were incubated for 0, 60, 120, and 180 minutes at 37° C. with hepatocytes. Reaction mixtures (50 μL) contained a final concentration of 1 μM test compound, 0.5 million cells/mL hepatocytes in the DMEM medium. At each of the time points (for example, 0, 1, 2, and 3 hours), 200 μL of quench solution (100% acetonitrile with 0.1% formic acid) with internal standard was transferred to each well. Midazolam was included as a positive control to verify assay performance. Plates were sealed and centrifuged at 4° C. for 15 minutes at 4000 rpm. The supernatant is transferred to fresh plates for LC/MS/MS analysis.
Summarized conditions (customizable): [Compound]=[…], Positive control: midazolam and/or naloxone, [Hepatocyte]=0.5 million cells/Ml, time=0, 60, 120, and 180 min, t=37° C.
as §4
The extent of metabolism was calculated as the disappearance of the test compound, compared to the 0-min control reaction incubations. Initial rates were calculated for the compound concentration and used to determine t½ values and subsequently, the intrinsic clearance, Clint. Clint=(0.693)(1/t½(min))(mL incubation/million cells)

Consider `C[C@@H](Oc1ccc(C(C)(C)c2cc(Cl)c(OCCCl)c(C#N)c2)cc1)c1ccnc(NS(C)(=O)=O)n1` (single isomer, unassigned) [Compound A169], for which the IC50 on androgen receptor (AR) is less than 500 nM. In addition, the microsomal CLint at 1 μM in data set [1] and in data set [2] was less than 12 µL/min/mg in each case. The hepatocyte CLint at 1 μM in data set [3] was less than 4 µL/min/1e6 cells.
Turning to `Cc1cc(C(C)(C)c2ccc(OC(C)c3scnc3S(C)(=O)=O)cc2)cc(C#N)c1OCCCl` (centres unmarked) [Compound A70], the IC50 on androgen receptor (AR) was less than 500 nM. The values for the microsomal CLint at 1 μM in data set [1] and in data set [2] were no less than 48 µL/min/mg and 12 to 48 µL/min/mg, respectively. In data set [3], the hepatocyte CLint at 1 μM fell in the range of 4 to 18 µL/min/1e6 cells.
On the same counts, the results for `CC(C)(c1ccc(OCc2[nH]cnc2S(C)(=O)=O)cc1)c1cc(Cl)c(OCCCl)c(Cl)c1` [Compound A71] are 500 to 2000 nM, less than 12 µL/min/mg, 12 to 48 µL/min/mg and 4 to 18 µL/min/1e6 cells.
Regarding `CC(Oc1ccc(C(C)(C)c2cc(Cl)c(OCCCl)c(C#N)c2)cc1)c1ncoc1S(C)(=O)=O` (centres unmarked) [Compound A79], on androgen receptor (AR), the IC50 is less than 500 nM. In addition, the results for the microsomal CLint at 1 μM in data set [1] and in data set [2] were no less than 48 µL/min/mg and less than 12 µL/min/mg, respectively. Also, the hepatocyte CLint at 1 μM in data set [3] was no less than 18 µL/min/1e6 cells.
On the same counts, the results for `Cc1oc(S(C)(=O)=O)nc1COc1ccc(C(C)(C)c2cc(Cl)c(OCCCl)c(C#N)c2)cc1` [Compound A80] are less than 500 nM, 12 to 48 µL/min/mg, less than 12 µL/min/mg and no less than 18 µL/min/1e6 cells.
Consider `CC(C)(C)C(=O)N(c1ccc(OCc2coc(NS(C)(=O)=O)n2)cc1)c1cc(Cl)c(OCCCl)c(C#N)c1` [Compound A127], for which the microsomal CLint at 1 μM in data set [1] and in data set [2] was 12 to 48 µL/min/mg in each case. Moreover, the hepatocyte CLint at 1 μM in data set [3] was in the range of 4 to 18 µL/min/1e6 cells.
Consider `CC(C)(c1ccc(OCc2csc(S(C)(=O)=O)n2)cc1)c1cc(Cl)c(OCCCl)c(C#N)c1` [Compound A144], for which the microsomal CLint at 1 μM in data set [1] and in data set [2] was 12 to 48 µL/min/mg throughout. Moreover, the hepatocyte CLint at 1 μM in data set [3] is no less than 18 µL/min/1e6 cells.
As for `CC(C)(c1ccc(C(=O)Nc2ccnc(N)n2)cc1)c1cc(Cl)c(OCCCl)c(Cl)c1` [Compound A146], the figures for the microsomal CLint at 1 μM in data set [1] and in data set [2] were less than 12 µL/min/mg and 12 to 48 µL/min/mg, respectively. For the same compound, in data set [3], the hepatocyte CLint at 1 μM is no less than 18 µL/min/1e6 cells.
For the compound `CC(C)(c1ccc(C(=O)Nc2ccnc(NS(C)(=O)=O)n2)cc1)c1cc(Cl)c(OCCCl)c(Cl)c1` [Compound A189], the IC50 at androgen receptor (AR) fell in the range of 500 to 2000 nM. Further, the microsomal CLint at 1 μM in data set [1] and in data set [2] was less than 12 µL/min/mg each time.
`CN1C(=O)N(Cc2ccc(C(C)(C)c3cc(Cl)c(OCCCCl)c(Cl)c3)cc2)C(=O)C1(C)C` [Compound B1]: the IC50 on androgen receptor (AR) lay within 500 to 2000 nM. The microsomal CLint at 1 μM was no less than 48 µL/min/mg in data set [1] and 12 to 48 µL/min/mg in data set [2].
On the same counts, the results for `CN1C(=O)N(Cc2ccc(C(C)(C)c3cc(Cl)c(OCCCl)c(Cl)c3)cc2)C(=O)C1(C)C` [Compound B2, 3-(4-(2-(3,5-Dichloro-4-(2-chloroethoxy)phenyl)propan-2-yl)benzyl)-1,5,5-trimethylimidazolidine-2,4-dione] are less than 500 nM, no less than 48 µL/min/mg and no less than 48 µL/min/mg.
Turning to `CC(C)(c1ccc(CN2C(=O)N(S(C)(=O)=O)C(C)(C)C2=O)cc1)c1cc(Cl)c(OCCCl)c(Cl)c1` [Compound B3, 3-(4-(2-(3,5-Dichloro-4-(2-chloroethoxy)phenyl)propan-2-yl)benzyl)-5,5-dimethyl-1-(methylsulfonyl)imidazolidine-2,4-dione], the IC50 on androgen receptor (AR) was 500 to 2000 nM. The microsomal CLint at 1 μM in data set [1] and in data set [2] was less than 12 µL/min/mg throughout.
As to `CC(C)(c1ccc(N2C(=O)N(S(C)(=O)=O)C(C)(C)C2=O)cc1)c1cc(Cl)c(OCCCl)c(Cl)c1` [Compound B7], the concentration for half-maximal inhibition (IC50) on androgen receptor (AR) was greater than 2000 nM. Also, the microsomal CLint at 1 μM in data set [1] and in data set [2] was less than 12 µL/min/mg each time.
Turning to `Cc1cc(C(C)(C)c2ccc(CN3C(=O)N(S(C)(=O)=O)C(C)(C)C3=O)c(C(N)=O)c2)cc(Cl)c1OCCCl` [Compound B9], on androgen receptor (AR), the IC50 was less than 500 nM. Also, the microsomal CLint at 1 μM in data set [1] and in data set [2] was 12 to 48 µL/min/mg each time.
Consider `CC(C)(c1cc(Cl)c(OCCCl)c(Cl)c1)c1ccc(N2C(=O)N(S(C)(=O)=O)C(C)(C)C2=O)c(C#N)c1` [Compound B10], for which the IC50 on androgen receptor (AR) is greater than 2000 nM. The microsomal CLint at 1 μM was 12 to 48 µL/min/mg in data set [1] and less than 12 µL/min/mg in data set [2].
